Assay results from paper PMC3479967 (Evidence-based Complementary and Alternative Medicine : eCAM, 2012).

Key:
[1] = Calculation of possible maximum concentrations in blood; design: species or system human; conditions: calculated, after a single oral administration of Epimedium pubescens decoction
UGT2B15 = target: T1, UGT2B15 (Homo sapiens, UniProt P54855); assay: Inhibition of recombinant UGT2B15 activity (4-MU glucuronidation)
T1 sequence (P54855 24-530): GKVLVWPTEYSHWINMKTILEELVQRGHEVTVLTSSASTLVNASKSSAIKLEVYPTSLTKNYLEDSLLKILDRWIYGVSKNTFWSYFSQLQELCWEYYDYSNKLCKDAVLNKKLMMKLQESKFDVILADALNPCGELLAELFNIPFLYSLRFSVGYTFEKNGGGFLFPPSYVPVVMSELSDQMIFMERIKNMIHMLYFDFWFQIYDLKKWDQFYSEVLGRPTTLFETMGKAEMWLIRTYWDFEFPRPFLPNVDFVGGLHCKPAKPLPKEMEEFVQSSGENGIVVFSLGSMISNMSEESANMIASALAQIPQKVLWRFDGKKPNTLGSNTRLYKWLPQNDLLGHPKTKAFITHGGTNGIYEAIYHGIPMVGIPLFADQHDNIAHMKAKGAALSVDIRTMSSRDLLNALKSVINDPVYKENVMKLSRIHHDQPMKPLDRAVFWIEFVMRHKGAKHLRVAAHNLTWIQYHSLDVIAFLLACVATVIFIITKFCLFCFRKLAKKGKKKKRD
Protocol: A panel of recombinant human UGT supersomes (UGT1A1, UGT1A3, UGT1A4, UGT1A6, UGT1A7, UGT1A8, UGT1A9, UGT1A10, UGT2B4, UGT2B7, UGT2B15, and UGT2B17) expressed in baculovirus-infected insect cells were purchased from BD Gentest Corp. (Woburn, MA, USA).
4-MU, a nonselective substrate of UGTs, was used as probe substrate for all UGTs except UGT1A4. Incubations with each individual enzyme were conducted using conditions previously described. There was a 5 min preincubation step at 37°C before the reaction was started by addition of UDPGA. The incubation mixtures were then centrifuged at 20,500 ×g for 15 min to obtain the supernatant. Aliquots (20 μL) were then analyzed by HPLC. The HPLC system (SHIMADZU, Kyoto, Japan) consisted of an SCL-10A system controller, two LC-10AT pumps, a SIL-10A auto injector, and a SPD-10AVP UV detector. Chromatographic separation was achieved using a Kromasil ODS column (4.6 × 150 mm I.D., 5 μm particle size) at a flow rate of 1 mL/min and UV detection at 316 nm. The mobile phase consisted of 10 mM KH2PO4, pH 2.7 (A) and acetonitrile (B). The following gradient was applied at a flow rate of 1 mL/min: 0–4 min 80% A and 20% B, 4.1–8 min 50% A and 50% B, 8.1–12 min, 30% A and 70% B. All experiments were performed in two independent experiments in duplicate.
A typical incubation mixture contained recombinant human UGTs, 5 mM MgCl2, 5 mM UDPGA, 50 μg/mg protein alamethicin, 50 mM Tris-HCl buffer (pH 7.4), and various probe substrates of UGTs in the absence or presence of different concentrations of inhibitors. […] The final concentration of DMSO in the incubation system was 1% (v/v). […]
Inhibition data from experiments were graphically represented by Dixon plots. K i values were calculated by nonlinear regression using the equations for competitive inhibition (1), noncompetitive inhibition (2), or mixed inhibition (3), [22] […] The type of inhibition was determined from the enzyme inhibition models. Goodness of fit to kinetic and inhibition models was assessed from the F statistic, r ^2 values, parameter standard error estimates, and 95% confidence intervals. […]

[2] = Calculation of possible maximum concentrations in gut lumen; design: species or system human; conditions: calculated, after a single oral administration of Epimedium pubescens decoction
From the text: The reported V L was 1.65 L/70 kg. […] Here we arbitrarily assumed the ratio in rat equaled to that in human blood, and the values of their oral bioavailability were consistent.

| Possible maximum concentration in human blood [1] | IC50 (UGT2B15) | Possible maximum concentration in human gut lumen [2] | Structure (SMILES) |
| --- | --- | --- | --- |
| ~1.5 nM | > 100 µM | ~3.8 µM | COc1ccc(-c2oc3c(CC=C(C)C)c(O)cc(O)c3c(=O)c2O)cc1 [Icaritin] |
| ~0.1 nM | > 100 µM | ~0.2 µM | COc1ccc(-c2oc3c(CC=C(C)C)c(O[C@@H]4O[C@H](CO)[C@@H](O)[C@H](O)[C@H]4O)cc(O)c3c(=O)c2O)cc1 [Icariside I] |

| Structure (SMILES) | Possible maximum concentration in human blood [1] | IC50 (UGT2B15) | Possible maximum concentration in human gut lumen [2] |
| --- | --- | --- | --- |
| COc1ccc(-c2oc3c(CC=C(C)C)c(O[C@@H]4O[C@H](CO)[C@@H](O)[C@H](O)[C@H]4O)cc(O)c3c(=O)c2O[C@@H]2O[C@@H](C)[C@H](O)[C@@H](O)[C@H]2O)cc1 [Icariin] | about 1.3 nM | > 100 µM | about 9.9 μM |
